Laboratory results published in paper PMC4055595, “Pharmacokinetic Compatibility of Ginsenosides and Schisandra Lignans in Shengmai-san: From the Perspective of P-Glycoprotein” (PLoS ONE, 2014).
Read-outs that look alike come from different tables or passages of the source.

Tests used:
[1] = system: LLC-PK1 cells (lacking P-gp); assay: Uptake (intracellular accumulation) of digoxin and ginsenosides in LLC-PK1 cells; type: in vitro ADME; conditions: for Effect of verapamil on intracellular accumulation: 10 µM verapamil; for Effect of SLE on intracellular accumulation: SLE 2.0 and 10.0 µg/mL
Description: (§1) LLC-PK1 cells, a cell line lacking P-gp, and the derived cell line L-MDR1, which over-express human MDR1-encoded P-gp, were grown in minimum essential medium with supplements at 37°C, 5% CO2, and 95% humidity. LLC-PK1 and L-MDR1 cells were seeded at a density of 12×10^6 cells per 150-cm^2 flask and grown for 7 days in medium 199 supplemented with 2 mM glutamine, 10% fetal bovine serum, 10 mg/500 mL of streptomycin, and 10,000 IU/500 mL of penicillin. To ensure a constant expression level of transport protein, L-MDR1 cells were grown in the presence of 640 nM vincristine. Cells were grown as monolayer on polycarbonate membrane filters (Transwell; Costar Corporation, Cambridge, MA) as outlined previously. Transepithelial resistance was measured in each well using a Millicell ERS ohmmeter (Millipore, Bedford, MA); wells registering a resistance of 200 ohms or greater, after correcting for the resistance obtained in control blank wells, were used in the transport experiments.
(§2) LLC-PK1 and L-MDR1 cells were incubated with SLE (2.0 and 10.0 µg/mL) or verapamil (10 µM) for 1.0 h, and then were washed to discard SLE or verapamil before adding 100 µg/mL of GE. The accumulation of GE lasted for 2 h, and the intracellular concentrations of ginsenosides were measured by LC/MS. All experiments were conducted in triplicate.

[2] = Rat plasma pharmacokinetics after 10-day vehicle/SLE and digoxin or GE; type: in vivo, Sprague-Dawley rats; conditions: rats; for AUC / Cmax / AUC(0-inf) / MRT inf / Tmax / half-life / Cl_F_obs: day 11 digoxin 0.5 mg/kg or GE 120 mg/kg ig; for AUC(0-inf): read-out: AUCINF_obs; for MRT inf: read-out: MRTINF_obs; for half-life: read-out: t1/2 (converted)
Description: This study was carried out in strict accordance with the recommendations in the Guide for the Care and Use of Laboratory Animals of the National Institutes of Health. The protocol was approved by the Committee on the Ethics of Animal Experiments of the China Pharmaceutical University. All surgery was performed under sodium pentobarbital anesthesia, and all efforts were made to minimize suffering. […] The rats were fed with standard laboratory food and water and fasted overnight but with free access to water before the test. To evaluate the effect of long-term treatment with SLE on the pharmacokinetics of ginsenosides, 24 rats were also divided into four groups (group I∼ group IV) with 6 animals each. […] On the 11th day, digoxin was administered intragastrically to rats (group I and group II) at a single dose of 0.5 mg/kg, GE was administered intragastrically to rats (group III and group IV) at a single dose of 120 mg/kg. […] Plasma was obtained by centrifugation at 5000 g for 10 min and stored at −20°C before analysis. The plasma / cell samples were extracted using a liquid–liquid extraction technique. To each tube containing 100 µL plasma, 10 µL internal standard (digoxin, 1.0 µg/mL) and 1.0 mL of n-butanol were added. The mixture was then vortex-extracted for 2 min, and centrifuged for 10 min at 10,000 g. […] The plasma concentration-time curves of ginsenosides in rats were obtained by plotting the mean plasma concentrations versus time. Pharmacokinetic parameters were calculated using the WinNonlin 6.3 program (Pharsight Inc., Mountain View, CA). The elimination half-life (t 1/2) value was calculated as 0.693/β, where β is the elimination rate constant calculated from the terminal linear portion of the log plasma concentration-time curve. The total areas under the plasma concentration- time curve from time 0 to the last quantifiable time point (AUC0-t) and from time 0 to infinity (AUC0-∞) were calculated using the log trapezoidal rule. [drawing 3] The maximum plasma concentrations (C max) for ginsenosides were obtained by visual inspection of the plasma concentration-time curve, whereas the initial drug concentration (the extrapolated concentration at zero time) of the drug after intravenous injection was calculated by back-extrapolation of the plasma concentration-time curve to the y-axis.

P-gp (MDR1) = P-gp (MDR1) (Homo sapiens, UniProt P08183); assay: Transport of digoxin and ginsenosides across L-MDR1 cell monolayers (efflux ratio); type: in vitro ADME; conditions: human, read-out: Efflux ratio (Papp BL-AP / Papp AP-BL)
Description: as §1
(§3) The LLC-PK1 and L-MDR1 cells were washed with warm Hank's balanced salt solution HBSS (pH 7.4) twice before transport experiment. HBSS containing verapamil (10 µM), SLE (2.0 and 10.0 µg/mL) or blank HBSS (control) was then loaded into both apical and basolateral chambers. After incubation at 37°C for 1.5 h, GE (100 µg/mL) was added to either the apical or basolateral side to evaluate the transport in absorptive and secretive directions, respectively. The cell monolayer was then incubated for another 2 h. Finally, the concentrations of ginsenosides were determined by LC/MS. All experiments were conducted in triplicate.
(§4) For the transport assay, the apparent permeability (P app, cm/s) in each direction (A→B and B→A) was calculated as follows, where A is the surface area of the membrane inserts (0.0804 cm^2), C 0 is the initial concentration of the compound applied in the donor compartment (2 µM), and △Q is the amount (micromoles) of compound transported over time △t (5 h = 18,000 s): [drawing 1]
(§5) The efflux ratio (ER) was a dimensionless number calculated as the ratio of the apparent permeability in the B→A direction divided by the apparent permeability in the A→B direction. [drawing 2]

[3] = biological target: human MDR1-encoded P-gp (L-MDR1 cells) (Homo sapiens, UniProt P08183); assay: as above; type: in vitro ADME; conditions: for Effect of verapamil on efflux ratio / Papp / Effect of SLE on efflux ratio / transport: L-MDR1 cells; for Effect of verapamil on efflux ratio / Papp: 10 µM verapamil; for Effect of SLE on efflux ratio / transport: SLE 2.0 and 10.0 µg/mL
Description: as §1, §3, §4, §5

Caco-2 cells = assay: Uptake of digoxin and ginsenosides in Caco-2 cells; type: in vitro ADME, human; conditions: for Effect of verapamil on uptake: 10 µM verapamil
Description: Caco-2 cells were purchased from American Type Culture Collection (Manassas, VA), and were routinely cultured in Dulbecco's modified Eagle's medium supplemented with 10% fetal bovine serum, 1% nonessential amino acids, 1 mM sodium pyruvate, and 100 U/mL penicillin and streptomycin (Invitrogen, Carlsbad, CA). The cells were grown in an atmosphere of 5% CO2 at 37°C, and cell medium was changed every other day. Cells were seeded at a density of 4×10^4 cells per well in 24-well microporous polycarbonate insert filter plates (0.4-µm pore size) (Corning Costar plates; Corning Life Sciences, Lowell, MA) and grown for 15 days in Caco-2 growth medium. The medium was replaced every 3 to 4 days. Before running the assay, the culture medium was replaced by HBSS buffer supplemented with 10 mM Hepes and 20 mM glucose.
as §2, with “Caco-2” for “LLC-PK1 and L-MDR1”, “h. Then the cells” for “h, and then”, “washed with Hank's” for “washed”, “the addition” for “adding 100 µg/mL”, “GE (100 µg/mL).” for “GE.”, “ginsenosides” for “GE”

[4] = female, Sprague-Dawley, rat, plasma, po, SLE 500 mg/kg ig once a day for 10 days
[5] = female, Sprague-Dawley, rat, plasma, po, control: vehicle once a day for 10 days
[6] = SLE 500 mg/kg ig once a day for 10 days
[7] = control: vehicle once a day for 10 days
[8] = LLC-PK1, pH 7.4, with verapamil 10 µM, L-MDR1 cells, presence of 10 µM verapamil

human MDR1-encoded P-gp (L-MDR1 cells), sequence (P08183 whole entry): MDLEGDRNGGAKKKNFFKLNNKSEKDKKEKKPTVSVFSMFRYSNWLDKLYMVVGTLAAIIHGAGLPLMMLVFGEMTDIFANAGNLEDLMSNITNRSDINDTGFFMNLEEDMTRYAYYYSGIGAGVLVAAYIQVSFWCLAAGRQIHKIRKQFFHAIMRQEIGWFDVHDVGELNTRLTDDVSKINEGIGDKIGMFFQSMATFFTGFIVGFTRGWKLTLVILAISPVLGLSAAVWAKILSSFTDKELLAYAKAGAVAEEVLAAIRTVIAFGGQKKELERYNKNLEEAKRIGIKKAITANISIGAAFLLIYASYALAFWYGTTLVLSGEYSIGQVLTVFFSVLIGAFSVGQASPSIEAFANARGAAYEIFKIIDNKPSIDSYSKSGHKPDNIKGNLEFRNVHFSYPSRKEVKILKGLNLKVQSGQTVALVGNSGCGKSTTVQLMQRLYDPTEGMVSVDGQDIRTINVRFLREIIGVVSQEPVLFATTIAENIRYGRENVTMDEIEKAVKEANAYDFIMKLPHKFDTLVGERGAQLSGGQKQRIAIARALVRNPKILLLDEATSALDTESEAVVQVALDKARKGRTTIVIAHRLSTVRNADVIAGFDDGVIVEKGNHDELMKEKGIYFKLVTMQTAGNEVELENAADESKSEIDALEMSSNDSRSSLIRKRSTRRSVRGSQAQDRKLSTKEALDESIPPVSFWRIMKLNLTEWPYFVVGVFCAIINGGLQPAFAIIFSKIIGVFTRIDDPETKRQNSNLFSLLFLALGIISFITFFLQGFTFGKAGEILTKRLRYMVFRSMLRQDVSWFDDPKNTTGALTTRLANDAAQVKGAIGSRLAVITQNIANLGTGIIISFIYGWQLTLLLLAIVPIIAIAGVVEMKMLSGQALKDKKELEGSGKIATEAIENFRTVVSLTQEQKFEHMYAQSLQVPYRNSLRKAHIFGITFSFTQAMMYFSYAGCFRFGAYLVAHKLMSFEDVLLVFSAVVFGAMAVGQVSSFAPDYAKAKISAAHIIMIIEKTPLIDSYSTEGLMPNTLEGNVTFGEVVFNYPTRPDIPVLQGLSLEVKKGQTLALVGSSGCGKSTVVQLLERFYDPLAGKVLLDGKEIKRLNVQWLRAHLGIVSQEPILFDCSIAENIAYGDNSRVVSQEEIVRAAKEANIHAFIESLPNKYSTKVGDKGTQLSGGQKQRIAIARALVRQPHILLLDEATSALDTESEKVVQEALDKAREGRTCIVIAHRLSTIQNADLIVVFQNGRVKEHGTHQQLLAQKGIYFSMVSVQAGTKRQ
P-gp (MDR1), sequence (P08183 whole entry): as above

SMILES	Effect of verapamil on intracellular accumulation [1]	Effect of SLE on intracellular accumulation [1]	AUC [2, 4] [ng·h/mL]	Cmax [2, 4] [ng/mL]	AUC(0-inf) [2, 4] [ng·h/mL]	MRT inf [2, 4] [h]	half-life [2, 4] [h]	AUC [2, 5] [ng·h/mL]	Cmax [2, 5] [ng/mL]	AUC(0-inf) [2, 5] [ng·h/mL]	MRT inf [2, 5] [h]	half-life [2, 5] [h]	Cl_F_obs [2, 6] [L/h]	efflux ratio at 2 h, 100 µg/mL (P-gp (MDR1); [8])	Effect of verapamil on efflux ratio / Papp [3]	Effect of SLE on efflux ratio / transport [3]	Effect of verapamil on uptake (Caco-2 cells)	other results
C[C@H]1O[C@@H](O[C@H]2[C@@H](O)C[C@H](O[C@H]3[C@@H](O)C[C@H](O[C@H]4CC[C@@]5(C)[C@H](CC[C@@H]6[C@@H]5C[C@@H](O)[C@]5(C)[C@@H](C7=CC(=O)OC7)CC[C@]65O)C4)O[C@@H]3C)O[C@@H]2C)C[C@H](O)[C@@H]1O [Digoxin, digoxin, reference compound]	no significant difference	no significant difference	123 ± 52.8	22.9 ± 13.7	127 ± 52.1	4.78 ± 0.91	2.19 ± 0.87	68.3 ± 26	11.8 ± 4.22	76.1 ± 30	5.65 ± 2.85	2.99 ± 2.32	4.49 ± 1.75	8.23	significantly decrease of ER	significantly decreased	significantly enhanced	Tmax ([2]; female, Sprague-Dawley, rat, plasma, po, SLE 500 mg/kg ig once a day for 10 days, read-out: Tmax): 3.28 ± 1.73 h; Tmax ([2]; female, Sprague-Dawley, rat, plasma, po, control: vehicle once a day for 10 days, read-out: Tmax): 2.33 ± 1.03 h; Increase of AUC0-τ by 10 continuous days administration of SLE ([2]; SLE 500 mg/kg x 10 days vs vehicle, digoxin 0.5 mg/kg ig on day 11, P<0.05): about 2 fold; Cl_F_obs [2, 7]: 7.48 ± 3.09 L/h; efflux ratio at 2 h, 100 µg/mL (P-gp (MDR1); LLC-PK1, pH 7.4, L-MDR1 cells, control (absence of verapamil), GE 100 µg/mL, 2 h): 26.2
CC(C)=CCC[C@](C)(O[C@@H]1O[C@H](CO)[C@@H](O)[C@H](O)[C@H]1O)[C@H]1CC[C@]2(C)[C@@H]1[C@H](O)C[C@@H]1[C@@]3(C)CC[C@H](O[C@@H]4O[C@H](CO)[C@@H](O)[C@H](O)[C@H]4O[C@@H]4O[C@H](CO)[C@@H](O)[C@H](O)[C@H]4O)C(C)(C)[C@@H]3CC[C@]12C [Rd, ginsenoside Rd]	no significant difference	no significant difference	7640 ± 2690	265 ± 49.4	11700 ± 8560	26.3 ± 90.6	18 ± 75.9	6570 ± 1820	262 ± 104	7460 ± 2340	22.4 ± 9.98	20.8 ± 9.64	0.0125 ± 0.0084	2.19	significantly decrease of ER	significantly decreased	significantly enhanced	Tmax [2, 6]: 8.00 ± 2.45 h; Increase of AUC (AUC0-∞) by 10 continuous days administration of SLE ([2]; SLE 500 mg/kg x 10 days vs vehicle, GE ig on day 11): 1.60 fold; Tmax [2, 7]: 8.00 ± 2.45 h; P-gp substrate classification ([3]; summary of transport/uptake in LLC-PK1, L-MDR1 and Caco-2 cells with verapamil): moderate P-gp substrates; Effect of SLE on intracellular concentration (Caco-2 cells; SLE 2.0 and 10.0 µg/mL, P<0.01): concentration dependently increase
